The supplement of paper PMC11451515

Experiments:
Assay in all cases: AUC of viability dose-response curve (% viability x log10 dose units); higher = less sensitive
Conditions in all cases: 48 h
[1] = test system: P12-Ichikawa
In short: (§1)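 In 1536-well plates, leukemia cells adapted to each medium (500 or 1000 cells/well) were exposed for 48 h at 37°C to library compounds in DMSO across 11 threefold doses, 47 μM down to 0.79 nM. Viability was read by CellTiter-Glo One luminescence and normalised per plate to DMSO and cell-free wells. A four-parameter log-logistic fit over log10 doses was integrated by trapezoidal rule. This yielded the area under the curve, with over-full-viability curves scaled and quality-control failures dropped.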

[2] = test system: NOMO1
In short: as §1

[3] = test system: SEM cells
In short: as §1

[4] = RPMI 5 mM glucose + 10% dialyzed FBS

| Compound | AUC of viability dose-response curve ([1]; HPLM + 10% dialyzed FBS) | AUC of viability dose-response curve ([1]; RPMI 5 mM glucose + 10% FBS) | AUC of viability dose-response curve [1, 4] | AUC of viability dose-response curve ([2]; HPLM + 10% dialyzed FBS) | AUC of viability dose-response curve ([2]; RPMI 5 mM glucose + 10% FBS) | AUC of viability dose-response curve [2, 4] | AUC of viability dose-response curve ([3]; HPLM + 10% dialyzed FBS) | AUC of viability dose-response curve ([3]; RPMI 5 mM glucose + 10% FBS) | AUC of viability dose-response curve [3, 4] |
| --- | --- | --- | --- | --- | --- | --- | --- | --- | --- |
| Cc1c[nH]c(/C=C2\C(=O)Nc3ccccc32)c1CCC(=O)O | 436 | 413 | 390 | 399 | 440 | 428 | – | – | – |
| O=C/1\C=C(/OC(=C1)/C2=C3SC4=C(SC3=CC=C2)C=CC=C4)N5CCOCC5 | – | – | – | – | – | – | 417 | 409 | 411 |
| CNC(=O)[C@H](Cc1ccccc1)NC(=O)[C@H](CC(C)C)[C@H](CSc1cccs1)C(=O)NO | 409 | 373 | 386 | 433 | 402 | 415 | 405 | 389 | 340 |
| CC/1=C/N([C@@H]2C[C@@H](O)[C@H](CO)O2)C(=O)NC1=O | 388 | 353 | 338 | 453 | 408 | 413 | – | – | – |
| O=C(NC1CCNCC1)c1n[nH]cc1NC(=O)c1c(Cl)cccc1Cl | 345 | 341 | 357 | 321 | 332 | 324 | 319 | 323 | 326 |
| COc1ccc(Cc2nccc3cc(OC)c(OC)cc23)cc1OC | 462 | 466 | 458 | 453 | 458 | 454 | 469 | 460 | 465 |
| C[C@H](NC(=O)C(=O)Nc1ccccc1C(C)(C)C)C(=O)N[C@@H](CC(=O)O)C(=O)COc1c(F)c(F)cc(F)c1F | 440 | 427 | 425 | 428 | 445 | 450 | 395 | 391 | 390 |
| CO/N=C(/C(=O)N[C@@H]1C(=O)N2C(C(=O)O)=C(Cn3ccc(=N)n3CCO)CS[C@H]12)c1csc(N)n1 | 460 | 452 | 463 | 421 | 446 | 459 | 413 | 461 | 467 |
| NC(=O)c1ccc(-c2nc(-c3ccc4c(c3)OCCO4)c(-c3ccccn3)[nH]2)cc1 | 470 | 459 | 473 | 449 | 460 | 473 | 451 | 462 | 416 |
| CCC(=O)O[C@@]1([C@@H](C)C[C@H]2[C@@H]3CCC/4=C/C(=O)/C=C\[C@]4(C)[C@@]3(F)[C@@H](O)C[C@]12C)C(=O)CCl | 325 | 254 | 251 | 411 | 467 | 429 | 339 | 336 | 308 |
| CN(C)Cc1ccc(-c2nc3cccc4c3n2CCNC4=O)cc1 | 461 | 463 | 466 | 464 | 458 | 452 | 455 | 459 | 462 |
| CC(=O)N1CCN(c2ccc(OCc3nn(C)c(C)c3-c3cccc4c(CCCOc5cc(C)c(Cl)c(C)c5)c(C(=O)O)n(Cc5cccnc5)c34)cc2)CC1 | 461 | 459 | 467 | 469 | 471 | 457 | 453 | 413 | 441 |
| COc1cc(N2CCC(O)CC2)ccc1Nc1cc(Nc2ccccc2[S+](=O)([O-])C(C)C)c2cc[nH]c2n1 | 411 | 392 | 400 | 331 | 414 | 404 | – | – | – |
| CC(C)(C)/[N+]([O-])=C/c1ccc([S+](=O)([O-])[O][Na])cc1[S+](=O)([O-])[O][Na] | 461 | 451 | 469 | 451 | 445 | 459 | 438 | 461 | 453 |
| COc1cc2nccc(Oc3ccc(NC(=O)Nc4ccc(F)cc4F)c(F)c3)c2cc1OC | 419 | 401 | 395 | 413 | 414 | 429 | – | – | – |
| COC(=O)N1CCN(Cc2cccc(NC(=O)Nc3ccc(C)nc3)c2F)CC1 | 458 | 434 | 408 | 418 | 434 | 434 | 470 | 464 | 448 |
| Cc1nc(Nc2ncc(C(=O)Nc3c(C)cccc3Cl)s2)cc(N2CCN(CCO)CC2)n1 | 358 | 396 | 398 | 448 | 461 | 447 | – | – | – |
| CN(C)CCOC(c1ccccc1)c1ccccc1 | 471 | 473 | 469 | 470 | 459 | 467 | 460 | 473 | 452 |
| C=C(C)[C@@H]1CC[C@]2(C)CC[C@]3(C)[C@H](CC[C@@H]4[C@@]5(C)CC[C@H](O)C(C)(C)[C@@H]5CC[C@]43C)[C@@H]12 | 458 | 467 | 459 | 444 | 466 | 446 | – | – | – |
| CCOC(=O)Nc1ccc(NCc2ccc(F)cc2)cc1N | 452 | 464 | 451 | 424 | 448 | 445 | 459 | 467 | 470 |
| CN(N=O)C(=O)N[C@H]1C(O)OC(CO)[C@@H](O)[C@@H]1O (some centres not stated) | 397 | 383 | 368 | 428 | 391 | 375 | – | – | – |
| CN[C@H](CC(C)C)C(=O)N[C@H]1C(=O)N[C@@H](CC(N)=O)C(=O)N[C@H]2C(=O)N[C@H]3C(=O)N[C@H](C(=O)N[C@H](C(=O)O)c4cc(O)cc(O)c4-c4cc3ccc4O)[C@H](O)c3ccc(c(Cl)c3)Oc3cc2cc(c3O[C@@H]2O[C@H](CO)[C@@H](O)[C@H](O)[C@H]2O[C@H]2C[C@](C)(N)[C@H](O)[C@H](C)O2)Oc2ccc(cc2Cl)[C@H]1O | 457 | 462 | 454 | 439 | 468 | 475 | 463 | 458 | 473 |
| Cc1ccc(C(C)(O)c2nc3ccccc3s2)c(C)c1 (configuration not stated) | 412 | 415 | 426 | 427 | 433 | 457 | 386 | 387 | 386 |

| Compound | AUC of viability dose-response curve ([1]; HPLM + 10% dialyzed FBS) | AUC of viability dose-response curve ([1]; RPMI 5 mM glucose + 10% FBS) | AUC of viability dose-response curve [1, 4] | AUC of viability dose-response curve ([2]; HPLM + 10% dialyzed FBS) | AUC of viability dose-response curve ([2]; RPMI 5 mM glucose + 10% FBS) | AUC of viability dose-response curve [2, 4] | AUC of viability dose-response curve ([3]; HPLM + 10% dialyzed FBS) | AUC of viability dose-response curve ([3]; RPMI 5 mM glucose + 10% FBS) | AUC of viability dose-response curve [3, 4] |
| --- | --- | --- | --- | --- | --- | --- | --- | --- | --- |
| CC[C@H]1OC(=O)[C@H](C)[C@@H](O[C@H]2C[C@@](C)(OC)[C@@H](O)[C@H](C)O2)[C@H](C)[C@@H](O[C@@H]2O[C@@H](C)C[C@H](N(C)C)[C@H]2O)[C@](C)(O)C[C@@H](C)C(=O)[C@H](C)[C@@H](O)[C@]1(C)O | 402 | 402 | 411 | 423 | 403 | 429 | 401 | 418 | 400 |
| NC(=O)N1c2ccccc2CC(=O)c2ccccc21 | 461 | 456 | 464 | 408 | 444 | 466 | 466 | 427 | 389 |
| CSC1=CC(=CC=C1)NC2=NC3=C(C=N2)/C=C(C(=O)N3C)/C4=C(Cl)C=CC=C4Cl | 476 | 469 | 464 | 467 | 467 | 460 | 417 | 455 | 407 |
| COc1cc2nccc(Oc3ccc(NC(=O)Nc4cc(C)on4)c(Cl)c3)c2cc1OC | 458 | 453 | 455 | 471 | 449 | 467 | – | – | – |
| CCOC(=O)C/1=C(C)/NC(=S)NC1C2=CC=CC(=C2)O (configuration not stated) | 251 | 246 | 281 | 286 | 272 | 300 | 242 | 242 | 263 |
| O=C1\C=C(/OC2=C1C=CC=C2C3=CC=CC=C3)N4CCOCC4 | 432 | 393 | 397 | 410 | 392 | 390 | – | – | – |
| COc1ccc(/C=C\c2cc(OC)c(OC)c(OC)c2)cc1O | 48.7 | 57 | 71.5 | 197 | 126 | 155 | 85.1 | 50.9 | 70 |
| O=C(Cc1cccc(OC(F)(F)F)c1)Nc1ccc(CCCCc2nnc(NC(=O)Cc3ccccn3)s2)nn1 | 426 | 386 | 387 | 407 | 388 | 394 | 381 | 276 | 277 |
| C[C@]\1(CCS\C(=N1)N)C2=CC(=C(F)C=C2F)C3=CN=CN=C3 | 411 | 420 | 435 | 378 | 359 | 383 | 441 | 390 | 429 |
| Fc1ccc(C(c2ccc(F)cc2)N2CCN(C/C=C/c3ccccc3)CC2)cc1 | 456 | 462 | 447 | 432 | 467 | 457 | 404 | 392 | 424 |
| C[C@H]1CN(C[C@@H](C)O1)CC(=O)NC2=CC=C3SC4=C(CC3=C2)C=CC=C4\C5=C\C(=O)\C=C(/O5)N6CCOCC6 | – | – | – | 397 | 439 | 433 | – | – | – |
| CO[C@H]1C[C@@H]2CC[C@@H](C)[C@@](O)(O2)C(=O)C(=O)N2CCCC[C@H]2C(=O)O[C@H]([C@H](C)C[C@@H]2CC[C@@H](OP(C)(C)=O)[C@H](OC)C2)CC(=O)[C@H](C)/C=C(\C)[C@@H](O)[C@@H](OC)C(=O)[C@H](C)C[C@H](C)/C=C/C=C/C=C/1C | 453 | 411 | 414 | 452 | 462 | 476 | 382 | 360 | 380 |
| CC1SC/2=C(C(O)=O)/C(=O)C3=CC(=C(C=C3N12)N4CCN(CC4)C\C5=C(C)\OC(=O)O5)F (configuration not stated) | 437 | 449 | 449 | 413 | 456 | 443 | 472 | 442 | 449 |
| N[C@@H](C(=O)N[C@H]1[C@H]2SC\C(=C(/N2C1=O)C(O)=O)Cl)C3=CC=CC=C3 | 462 | 457 | 466 | 462 | 430 | 441 | 436 | 465 | 468 |
| C#CCN(C)[C@H](C)Cc1ccccc1 | 431 | 413 | 402 | 401 | 385 | 410 | 401 | 410 | 407 |
| Cc1cc2c(C(C)C)c(O)c(O)c(C=O)c2c(O)c1-c1c(C)cc2c(C(C)C)c(O)c(O)c(C=O)c2c1O | 453 | 451 | 452 | 445 | 449 | 452 | 459 | 447 | 444 |
| OC[C@H]1O[C@@H](Oc2ccc(O)cc2)[C@H](O)[C@@H](O)[C@@H]1O | 461 | 421 | 426 | 461 | 426 | 404 | 376 | 390 | 397 |
| O=[N+]([O-])c1cn2c(n1)OC[C@@H](OCc1ccc(OC(F)(F)F)cc1)C2 | 450 | 453 | 458 | 454 | 459 | 470 | 444 | 466 | 455 |
| Cc1cc(O)c2c3c4c(cc(O)c13)C(C)(C)C(=O)c1c(O)cc(O)c(c1-4)C2=O | 460 | 457 | 454 | 450 | 451 | 462 | 457 | 465 | 450 |
| COc1cc2c(N3CCN(C(=O)Nc4ccc(OC(C)C)cc4)CC3)ncnc2cc1OCCCN1CCCCC1 | 406 | 360 | 369 | 395 | 357 | 371 | – | – | – |
| COc1cc2nccc(Oc3ccc(NC(=O)C4(C(=O)Nc5ccc(F)cc5)CC4)cc3)c2cc1OC | 436 | 440 | 427 | 433 | 457 | 442 | – | – | – |
| O=C1Nc2ccccc2/C1=C1\Nc2ccccc2C1=O | 459 | 467 | 471 | 448 | 447 | 442 | – | – | – |
